One series concerns the target T1, αvβ1 (UniProt G3HZ55+P06756).
T1 construct: expressed in transfected cells; host or cells: CHO cells deficient in α5 gene, transfected with αv gene
Briefly: αvβ1 cell adhesion inhibition test (αv-transfected CHO cells on human fibronectin). The format is cell-based. Particulars: human fibronectin coating, 1 mM MnCl2, 1 hour, read-out: IC50 (rate of inhibition of cell adhesion, αvβ1). As for the experimental part:
Test Example 1 was performed by partially modifying the method of Reed et al. (Sci Transl Med., 7 (288), 288ra79, 2015).
Human fibronectin (manufactured by Sigma-Aldrich Co. LLC, F0895) was prepared at 1.25 μg/mL with phosphate buffered saline (PBS), dispensed at 100 μL/well to a 96-well plate, and left standing overnight. The plate was washed with Hanks' balanced salt solution (HBSS), then subjected to blocking treatment with Dulbecco's modified Eagle medium (DMEM) containing 1% bovine serum-derived albumin (BSA) (FUJIFILM Wako Pure Chemical Corp., for cell culture, 017-22231), and used as a coated plate in the adhesion test.
αv-transfected cells (CHO cells deficient in α5 gene and transfected with αv gene) cultured in Ham's F-12 medium (FUJIFILM Wako Pure Chemical Corp., 087-08335) containing 10% fetal bovine serum (FBS), 1% penicillin/streptomycin/amphotericin B (manufactured by Thermo Fisher Scientific, Inc., 15240), 1 mM GlutaMAX Supplement (manufactured by Thermo Fisher Scientific, Inc., 35050), and 400 μg/mL hygromycin B (FUJIFILM Wako Pure Chemical Corp., 080-07683) were recovered and suspended in DMEM containing 1 mM MnCl2 (manufactured by Sigma-Aldrich Co. LLC, M1787) to prepare a cell suspension. A test compound dissolved in DMSO was added thereto.
The cell suspension of 1×10^6 cells/mL containing the test compound was added at 100 μL/well to the coated plate and left standing for 1 hour in a 5% CO2 incubator (37° C.). One hour later, the supernatant was removed, and the plate was washed with HBSS. The cells that adhered to each well in the plate were stained with crystal violet, and the cells were lysed, followed by absorbance measurement. Inhibition without substrate coating was defined as 100% inhibition, and inhibition when DMSO was added instead of the test compound was defined as 0% inhibition. The rate of inhibition of cell adhesion by the test compound was calculated according to the following expression.
Rate of inhibition of cell adhesion (%)=[1−{(Absorbance in the case of adding the test compound)−(Absorbance without substrate coating)}/{(Absorbance in the case of adding DMSO)−(Absorbance without substrate coating)}]×100
An IC50 value was calculated from the rate of inhibition of cell adhesion by the test compound. A: IC50<3 nM, B: 3 nM≤IC50<10 nM, C: 10 nM≤IC50<30 nM, D: 30 nM≤IC50<100 nM, or E: IC50≥100 nM.

Series [1] in a line: Transcellular transport test using Caco2 cell. The format is in vitro ADME. Particulars: human, Caco-2; Caco2 monolayer, A-to-B, 10 μM compound, pH 7.4, 90 minutes. As for the experimental part: Caco2 cells (purchased from ATCC) were cultured in DMEM medium (Thermo Fisher Scientific, Inc., 11965) containing 10% FBS (Thermo Fisher Scientific, Inc., 10082) and 1% penicillin/streptomycin/amphotericin B (Thermo Fisher Scientific, Inc., 15240). A transcellular transport test was carried out in accordance with MultiScreen Caco2 Drug Transport Assembly in a 96-well system (Application Note AN1727EN, MultiScreen Caco-2 Assay System, Merck) by partially modifying it. The Caco2 cells were inoculated at a cell density of 4×10^4 cells/well onto a micropore polycarbonate insert of a 96-well plate (Merck, Millcell-96 culture insert plate 0.4 μm pore size, well membrane area=0.11 cm^2, PSHT004S5) and cultured for 20 to 22 days, and the resulting monolayer was used in the transcellular transport test. The medium of the inoculated cells was replaced with a fresh one every 3 to 4 days.
Apical-to-basolateral (A-to-B) transport in the Caco2 cell monolayer membrane was performed by using HBSS (Thermo Fisher Scientific, Inc., 14025) medium (pH=7.4) containing 20 mM HEPES (Thermo Fisher Scientific, Inc., 15630), and adding HEPES-containing HBSS medium containing 10 μM compound (a 10 mM solution of the compound in DMSO was added at a 1000-fold dilution; final DMSO concentration: 0.1%) at 75 μL/well to the apical side and HEPES-containing HBSS medium supplemented with no compound at 250 μL/well to the basolateral side, followed by culture at 37° C. for 90 minutes. After culture, a 100 μL aliquot was collected from the basolateral side, and the concentration of a permeated compound was measured by LC-MS/MS under measurement conditions mentioned later. Papp (apparent permeability; cm/sec) was calculated from the determined concentration. Papp was determined according to the expression given below by calculating the slope (dA/dt; nmol/sec) of a straight line drawn between two points 0 minutes and zero amount of the compound in a graph plotted with an assay time (90 min) on the abscissa against the amount of the compound in the solution on the permeated side on the ordinate. As for an assay concentration, the concentration in the compound in the HEPES-containing HBSS medium containing the added compound was measured by UV-HPLC under measurement conditions mentioned later.
Papp (cm/sec)=C0×S×(dA/dt)
C0: assay concentration, S: plate membrane area=0.11 cm^2

Structures are written as SMILES. A value given as a limit tells only on which side of the number the result lay.

T1 sequence (P06756 31-889 limits assumed): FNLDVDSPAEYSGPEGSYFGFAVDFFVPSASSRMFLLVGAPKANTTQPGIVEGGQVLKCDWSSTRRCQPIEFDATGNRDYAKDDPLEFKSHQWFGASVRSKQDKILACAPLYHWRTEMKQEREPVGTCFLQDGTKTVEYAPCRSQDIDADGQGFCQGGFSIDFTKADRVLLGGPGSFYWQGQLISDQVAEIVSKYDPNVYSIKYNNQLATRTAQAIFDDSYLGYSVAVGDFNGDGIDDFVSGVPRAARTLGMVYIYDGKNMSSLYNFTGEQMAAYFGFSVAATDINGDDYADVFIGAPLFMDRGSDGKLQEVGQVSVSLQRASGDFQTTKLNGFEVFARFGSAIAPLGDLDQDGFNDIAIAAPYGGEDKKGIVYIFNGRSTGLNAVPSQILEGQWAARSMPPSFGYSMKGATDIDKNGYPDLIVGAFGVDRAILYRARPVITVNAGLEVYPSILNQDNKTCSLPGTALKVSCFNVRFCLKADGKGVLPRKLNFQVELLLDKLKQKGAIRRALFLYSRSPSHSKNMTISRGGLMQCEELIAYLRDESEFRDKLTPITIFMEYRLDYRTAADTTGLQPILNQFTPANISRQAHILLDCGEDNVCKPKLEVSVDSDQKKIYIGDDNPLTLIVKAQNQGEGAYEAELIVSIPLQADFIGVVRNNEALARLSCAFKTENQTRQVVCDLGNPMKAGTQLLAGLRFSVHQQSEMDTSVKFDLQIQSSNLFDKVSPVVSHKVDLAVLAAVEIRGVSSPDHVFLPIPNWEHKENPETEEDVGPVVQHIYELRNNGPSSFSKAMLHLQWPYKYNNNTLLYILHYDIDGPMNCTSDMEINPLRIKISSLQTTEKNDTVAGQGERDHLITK
T1 sequence (P06756 891-1048 limits assumed): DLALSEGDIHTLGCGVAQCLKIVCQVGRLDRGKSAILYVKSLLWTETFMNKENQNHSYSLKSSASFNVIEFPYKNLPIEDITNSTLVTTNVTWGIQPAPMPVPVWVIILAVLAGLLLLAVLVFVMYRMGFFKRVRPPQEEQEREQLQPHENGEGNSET
T1 sequence (G3HZ55 21-798): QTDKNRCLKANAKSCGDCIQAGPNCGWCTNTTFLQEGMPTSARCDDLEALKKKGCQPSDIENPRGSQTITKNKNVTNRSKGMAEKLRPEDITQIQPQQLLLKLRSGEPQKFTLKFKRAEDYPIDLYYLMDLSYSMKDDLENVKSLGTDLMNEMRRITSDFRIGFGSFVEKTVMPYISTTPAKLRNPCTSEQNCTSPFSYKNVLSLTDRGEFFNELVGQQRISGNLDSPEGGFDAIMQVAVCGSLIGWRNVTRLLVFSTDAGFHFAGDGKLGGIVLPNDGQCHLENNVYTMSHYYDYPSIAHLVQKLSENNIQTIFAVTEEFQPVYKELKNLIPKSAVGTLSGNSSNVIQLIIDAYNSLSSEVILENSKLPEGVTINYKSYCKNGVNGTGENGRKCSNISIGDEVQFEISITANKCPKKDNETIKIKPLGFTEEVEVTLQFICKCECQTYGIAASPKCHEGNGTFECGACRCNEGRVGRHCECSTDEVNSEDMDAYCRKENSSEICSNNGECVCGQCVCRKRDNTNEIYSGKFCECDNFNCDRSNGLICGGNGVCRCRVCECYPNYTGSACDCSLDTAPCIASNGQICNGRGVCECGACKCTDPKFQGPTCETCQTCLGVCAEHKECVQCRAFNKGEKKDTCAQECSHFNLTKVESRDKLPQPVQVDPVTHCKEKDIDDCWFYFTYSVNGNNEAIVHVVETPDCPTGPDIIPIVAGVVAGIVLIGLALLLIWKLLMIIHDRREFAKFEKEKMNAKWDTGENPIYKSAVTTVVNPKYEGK

Turning to `O=C(O)C[C@H](NC(=O)CNC(=O)c1cc(NC2=NCC(F)CN2)c2cn[nH]c2c1)c1cc(Cl)c(F)c(C(F)(F)F)c1` (stereo partly drawn) [Example 15-(b), (3S)-3-(3-chloro-4-fluoro-5-(trifluoromethyl)phenyl)-3-(2-(4-((5-fluoro-1,4,5,6-tetrahydropyrimidin-2-yl)amino)-1H-indazole-6-carboxamido)acetamido)propanoic acid], the half-maximal inhibitory concentration (IC50) at αvβ1 was less than 3 nM. For the same molecule, in series [1], the Papp A→B at 90 min, 10 μM was greater than 1 ×10⁻⁶ cm/s.
The matching figures for `COc1ccc([C@H](CC(=O)O)NC(=O)CNC(=O)c2cc(NC3=NCC(F)CN3)c3cn[nH]c3c2)cc1Br` (stereo partly drawn) [Example 16-(b), (3S)-3-(3-bromo-4-methoxyphenyl)-3-(2-(4-((5-fluoro-1,4,5,6-tetrahydropyrimidin-2-yl)amino)-1H-indazole-6-carboxamido)acetamido)propanoic acid]: less than 3 nM and greater than 1 ×10⁻⁶ cm/s.
The corresponding values for `O=C(O)C[C@H](NC(=O)CNC(=O)c1cc(NC2=NCC(F)CN2)c2cn[nH]c2c1)c1cc(Cl)cc(Cl)c1` (stereo partly drawn) [Example 17-(b), (3S)-3-(3,5-dichlorophenyl)-3-(2-(4-((5-fluoro-1,4,5,6-tetrahydropyrimidin-2-yl)amino)-1H-indazole-6-carboxamido)acetamido)propanoic acid] are less than 3 nM and greater than 1 ×10⁻⁶ cm/s.
The matching figures for `O=C(O)C[C@H](NC(=O)CNC(=O)c1cc(NC2=NCC(F)CN2)c2cn[nH]c2c1)c1cc(Cl)cc(Br)c1` (stereo partly drawn) [Example 18-(b), (3S)-3-(3-bromo-5-chlorophenyl)-3-(2-(4-((5-fluoro-1,4,5,6-tetrahydropyrimidin-2-yl)amino)-1H-indazole-6-carboxamido)acetamido)propanoic acid]: less than 3 nM and greater than 1 ×10⁻⁶ cm/s.
On to `O=C(O)C[C@H](NC(=O)CNC(=O)c1cc(NC2=NCC(F)CN2)c2cn[nH]c2c1)c1cc(Br)cc(Br)c1` (stereo partly drawn) [Example 19-(b), (3S)-3-(3,5-dibromophenyl)-3-(2-(4-((5-fluoro-1,4,5,6-tetrahydropyrimidin-2-yl)amino)-1H-indazole-6-carboxamido)acetamido)propanoic acid], for which, on αvβ1, the IC50 was less than 3 nM. This molecule also yielded a Papp A→B at 90 min, 10 μM in series [1] greater than 1 ×10⁻⁶ cm/s.
The matching figures for `O=C(O)C[C@H](NC(=O)CNC(=O)c1cc(NC2=NCC(F)CN2)c2cn[nH]c2c1)c1cc(Br)cc(I)c1` (stereo partly drawn) [Example 20-(b), (3S)-3-(3-bromo-5-iodophenyl)-3-(2-(4-((5-fluoro-1,4,5,6-tetrahydropyrimidin-2-yl)amino)-1H-indazole-6-carboxamido)acetamido)propanoic acid]: less than 3 nM and greater than 1 ×10⁻⁶ cm/s.
The corresponding values for `O=C(O)C[C@H](NC(=O)CNC(=O)c1cc(NC2=NCC(F)CN2)c2cn[nH]c2c1)c1cc(Cl)cc(I)c1` (stereo partly drawn) [Example 21-(b), (3S)-3-(3-chloro-5-iodophenyl)-3-(2-(4-((5-fluoro-1,4,5,6-tetrahydropyrimidin-2-yl)amino)-1H-indazole-6-carboxamido)acetamido)propanoic acid] are less than 3 nM and greater than 1 ×10⁻⁶ cm/s.
As to `O=C(O)C[C@H](NC(=O)CNC(=O)c1cc(NC2=NCC(F)CN2)c2cn[nH]c2c1)c1cc(Cl)ccc1F` (stereo partly drawn) [Example 22-(b), (3S)-3-(5-chloro-2-fluorophenyl)-3-(2-(4-((5-fluoro-1,4,5,6-tetrahydropyrimidin-2-yl)amino)-1H-indazole-6-carboxamido)acetamido)propanoic acid], the IC50 at αvβ1 fell in the range of 10 to 30 nM. The molecule also showed a Papp A→B at 90 min, 10 μM in series [1] greater than 1 ×10⁻⁶ cm/s.
The matching figures for `O=C(O)C[C@H](NC(=O)CNC(=O)c1cc(NC2=NCC(F)CN2)c2cn[nH]c2c1)c1cc(Br)ccc1F` (stereo partly drawn) [Example 23-(b), (3S)-3-(5-bromo-2-fluorophenyl)-3-(2-(4-((5-fluoro-1,4,5,6-tetrahydropyrimidin-2-yl)amino)-1H-indazole-6-carboxamido)acetamido)propanoic acid]: less than 3 nM and greater than 1 ×10⁻⁶ cm/s.
The corresponding values for `O=C(O)C[C@H](NC(=O)CNC(=O)c1cc(NC2=NCC(F)CN2)c2cn[nH]c2c1)c1cc(OC(F)F)cc(C(F)(F)F)c1` (stereo partly drawn) [Example 24-(b), (3S)-3-(3-(difluoromethoxy)-5-(trifluoromethyl)phenyl)-3-(2-(4-((5-fluoro-1,4,5,6-tetrahydropyrimidin-2-yl)amino)-1H-indazole-6-carboxamido)acetamido)propanoic acid] are less than 3 nM and 0.5 to 1 ×10⁻⁶ cm/s.
The corresponding values for `O=C(O)C[C@H](NC(=O)CNC(=O)c1cc(NC2=NCC(F)CN2)c2cn[nH]c2c1)c1cc(Cl)cc(OC(F)F)c1` (stereo partly drawn) [Example 25-(b), (3S)-3-(3-chloro-5-(difluoromethoxy)phenyl)-3-(2-(4-((5-fluoro-1,4,5,6-tetrahydropyrimidin-2-yl)amino)-1H-indazole-6-carboxamido)acetamido)propanoic acid] are less than 3 nM and greater than 1 ×10⁻⁶ cm/s.
Regarding `O=C(O)C[C@H](NC(=O)CNC(=O)c1cc(NC2=NCC(F)CN2)c2cn[nH]c2c1)c1cc(Br)cc(OC(F)F)c1` (stereo partly drawn) [Example 26-(b), (3S)-3-(3-bromo-5-(difluoromethoxy)phenyl)-3-(2-(4-((5-fluoro-1,4,5,6-tetrahydropyrimidin-2-yl)amino)-1H-indazole-6-carboxamido)acetamido)propanoic acid], at αvβ1, the half-maximal inhibitory concentration (IC50) is less than 3 nM. Further, in series [1], the apparent permeability from apical to basolateral (Papp A→B) at 90 min, 10 μM is greater than 1 ×10⁻⁶ cm/s.
The matching figures for `O=C(O)C[C@H](NC(=O)CNC(=O)c1cc(NC2=NCC(F)CN2)c2cn[nH]c2c1)c1ccc(F)c(OC(F)F)c1` (stereo partly drawn) [Example 27-(b), (3S)-3-(3-(difluoromethoxy)-4-fluorophenyl)-3-(2-(4-((5-fluoro-1,4,5,6-tetrahydropyrimidin-2-yl)amino)-1H-indazole-6-carboxamido)acetamido)propanoic acid]: less than 3 nM and greater than 1 ×10⁻⁶ cm/s.
The matching figures for `O=C(O)C[C@H](NC(=O)CNC(=O)c1cc(NC2=NCC(F)CN2)c2cn[nH]c2c1)c1cc(OC(F)F)ccc1F` (stereo partly drawn) [Example 28-(b), (3S)-3-(5-(difluoromethoxy)-2-fluorophenyl)-3-(2-(4-((5-fluoro-1,4,5,6-tetrahydropyrimidin-2-yl)amino)-1H-indazole-6-carboxamido)acetamido)propanoic acid]: less than 3 nM and greater than 1 ×10⁻⁶ cm/s.
The matching figures for `O=C(O)C[C@H](NC(=O)CNC(=O)c1cc(NC2=NCC(F)CN2)c2cn[nH]c2c1)c1cc(OC(F)F)cc(-n2cccn2)c1` (stereo partly drawn) [Example 29-(b), (3S)-3-(3-(difluoromethoxy)-5-(1H-pyrazol-1-yl)phenyl)-3-(2-(4-((5-fluoro-1,4,5,6-tetrahydropyrimidin-2-yl)amino)-1H-indazole-6-carboxamido)acetamido)propanoic acid]: less than 3 nM and 0.1 to 0.5 ×10⁻⁶ cm/s.

Values taken from US20230192661A1, “1, 4, 5, 6-TETRAHYDROPYRIMIDINE-2-AMINE DERIVATIVE” (UBE Corporation, priority 2020, published 2023).
